Data taken from ChEMBL document CHEMBL4229455, “Synthesis and anticancer activity of novel bisindolylhydroxymaleimide derivatives with potent GSK-3 kinase inhibition” (Bioorg Med Chem, 2018).

How the values were obtained:
Type in all cases: functional
[1] = system: NCI-H226; assay: Cytotoxicity against human NCI-H226 cells after 48 hrs by SRB assay; conditions: NCI-H226, 48 h
[2] = system: CAKI-1; assay: Cytotoxicity against human Caki1 cells assessed as cell growth at 0.01 uM after 48 hrs by SRB assay relative to control; conditions: CAKI-1, 48 h, read-out: Activity
[3] = system: CCRF-CEM; assay: Cytotoxicity against human CCRF-CEM cells assessed as cell growth at 100 uM after 48 hrs by SRB assay relative to control; conditions: read-out: Activity
[4] = system: NCI-H23; assay: Cytotoxicity against human NCI-H23 cells assessed as cell growth at 1 uM after 48 hrs by SRB assay relative to control; conditions: NCI-H23, 48 h, read-out: Activity
[5] = system: OVCAR-3; assay: Cytotoxicity against human OVCAR3 cells assessed as cell growth at 0.1 uM after 48 hrs by SRB assay relative to control; conditions: OVCAR-3, 48 h, read-out: Activity
[6] = system: HL-60(TB); assay: Cytotoxicity against human HL-60(TB) cells assessed as cell growth at 0.1 uM after 48 hrs by SRB assay relative to control; conditions: HL-60, 48 h, read-out: Activity
[7] = system: T47D; assay: Cytotoxicity against human T47D cells assessed as cell growth at 1 uM after 48 hrs by SRB assay relative to control; conditions: read-out: Activity
[8] = system: SK-MEL-28; assay: Cytotoxicity against human SK-MEL-28 cells assessed as cell growth at 0.01 uM after 48 hrs by SRB assay relative to control; conditions: SK-MEL-28, 48 h, read-out: Activity
[9] = system: LOX IMVI; assay: Cytotoxicity against human LOXIMVI cells assessed as cell growth at 0.1 uM after 48 hrs by SRB assay relative to control; conditions: read-out: Activity
[10] = system: BT-549; assay: Cytotoxicity against human BT549 cells assessed as cell growth at 0.1 uM after 48 hrs by SRB assay relative to control; conditions: BT-549, 48 h, read-out: Activity
[11] = system: SF-268; assay: Cytotoxicity against human SF268 cells assessed as cell growth at 0.01 uM after 48 hrs by SRB assay relative to control; conditions: SF-268, 48 h, read-out: Activity
[12] = system: UACC-62; assay: Cytotoxicity against human UACC62 cells assessed as cell growth at 0.1 uM after 48 hrs by SRB assay relative to control; conditions: UACC-62, 48 h, read-out: Activity
[13] = system: KM12; assay: Cytotoxicity against human KM12 cells assessed as cell growth at 100 uM after 48 hrs by SRB assay relative to control; conditions: KM12, 48 h, read-out: Activity
[14] = system: SR; assay: Cytotoxicity against human SR cells assessed as cell growth at 0.01 uM after 48 hrs by SRB assay relative to control; conditions: read-out: Activity
[15] = system: SW-620; assay: Cytotoxicity against human SW620 cells after 48 hrs by SRB assay; conditions: SW-620, 48 h
[16] = system: SW-620; assay: Cytotoxicity against human SW620 cells assessed as cell growth at 0.1 uM after 48 hrs by SRB assay relative to control; conditions: SW-620, 48 h, read-out: Activity
[17] = system: HOP-62; assay: Cytotoxicity against human HOP62 cells assessed as cell growth at 1 uM after 48 hrs by SRB assay relative to control; conditions: HOP-62, 48 h, read-out: Activity
[18] = system: Malme-3M; assay: Cytotoxicity against human MALME-3M cells assessed as cell growth at 100 uM after 48 hrs by SRB assay relative to control; conditions: read-out: Activity
[19] = system: COLO 205; assay: Cytotoxicity against human COLO205 cells assessed as cell growth at 100 uM after 48 hrs by SRB assay relative to control; conditions: COLO 205, 48 h, read-out: Activity
[20] = system: SNB-19; assay: Cytotoxicity against human SNB19 cells assessed as cell growth at 1 uM after 48 hrs by SRB assay relative to control; conditions: SNB-19, 48 h, read-out: Activity
[21] = system: CAKI-1; assay: Cytotoxicity against human Caki1 cells assessed as cell growth at 100 uM after 48 hrs by SRB assay relative to control; conditions: CAKI-1, 48 h, read-out: Activity
[22] = system: SR; assay: Cytotoxicity against human SR cells after 48 hrs by SRB assay
[23] = system: UO-31; assay: Cytotoxicity against human UO31 cells assessed as cell growth at 1 uM after 48 hrs by SRB assay relative to control; conditions: UO-31, 48 h, read-out: Activity
[24] = system: SK-MEL-5; assay: Cytotoxicity against human SK-MEL-5 cells assessed as cell growth at 100 uM after 48 hrs by SRB assay relative to control; conditions: SK-MEL-5, 48 h, read-out: Activity
[25] = system: A549; assay: Cytotoxicity against human A549 cells assessed as cell growth at 1 uM after 48 hrs by SRB assay relative to control; conditions: A549, 48 h, read-out: Activity
[26] = system: BT-549; assay: Cytotoxicity against human BT549 cells assessed as cell growth at 1 uM after 48 hrs by SRB assay relative to control; conditions: BT-549, 48 h, read-out: Activity
[27] = system: OVCAR-5; assay: Cytotoxicity against human OVCAR5 cells assessed as cell growth at 0.1 uM after 48 hrs by SRB assay relative to control; conditions: OVCAR-5, 48 h, read-out: Activity
[28] = system: M14; assay: Cytotoxicity against human M14 cells assessed as cell growth at 100 uM after 48 hrs by SRB assay relative to control; conditions: M14, 48 h, read-out: Activity
[29] = system: K562; assay: Cytotoxicity against human K562 cells assessed as cell growth at 1 uM after 48 hrs by SRB assay relative to control; conditions: K562, 48 h, read-out: Activity
[30] = system: HOP-62; assay: Cytotoxicity against human HOP62 cells after 48 hrs by SRB assay; conditions: HOP-62, 48 h; for CC50: read-out: LC50 (the source's name)
[31] = system: SNB-75; assay: Cytotoxicity against human SNB75 cells assessed as cell growth at 100 uM after 48 hrs by SRB assay relative to control; conditions: SNB-75, 48 h, read-out: Activity
[32] = system: PC-3; assay: Cytotoxicity against human PC3 cells assessed as cell growth at 1 uM after 48 hrs by SRB assay relative to control; conditions: PC-3, 48 h, read-out: Activity
[33] = system: TK-10; assay: Cytotoxicity against human TK10 cells assessed as cell growth at 100 uM after 48 hrs by SRB assay relative to control; conditions: TK-10, 48 h, read-out: Activity
[34] = system: OVCAR-3; assay: Cytotoxicity against human OVCAR3 cells assessed as cell growth at 0.01 uM after 48 hrs by SRB assay relative to control; conditions: OVCAR-3, 48 h, read-out: Activity
[35] = system: IGROV-1; assay: Cytotoxicity against human IGROV1 cells after 48 hrs by SRB assay; conditions: IGROV-1, 48 h
[36] = system: A498; assay: Cytotoxicity against human A498 cells assessed as cell growth at 0.1 uM after 48 hrs by SRB assay relative to control; conditions: A498, 48 h, read-out: Activity
[37] = system: A498; assay: Cytotoxicity against human A498 cells assessed as cell growth at 100 uM after 48 hrs by SRB assay relative to control; conditions: A498, 48 h, read-out: Activity

## N#CCCCCCn1cc(C2=C(c3cn(CCCCCC#N)c4ccccc34)C(=O)N(O)C2=O)c2ccccc21
[1]
  GI50: 7.26 µM
  LC50: > 100 µM
  TGI: 70.8 µM
[2]
  growth at 0.01 µM: 98%
[3]
  growth at 100 µM: 3%
[4]
  growth at 1 µM: 94%
[5]
  growth at 0.1 µM: 101%
[6]
  growth at 0.1 µM: 89%
[7]
  growth at 1 µM: 89%
[8]
  growth at 0.01 µM: 102%
[9]
  growth at 0.1 µM: 90%
[10]
  growth at 0.1 µM: 92%
[11]
  growth at 0.01 µM: 97%
[12]
  growth at 0.1 µM: 94%
[13]
  growth at 100 µM: -23%
[14]
  growth at 0.01 µM: 84%
[15]
  GI50: 4.76 µM
  LC50: > 100 µM
  TGI: > 100 µM
[16]
  growth at 0.1 µM: 97%
[17]
  growth at 1 µM: 83%
[18]
  growth at 100 µM: -14%
[19]
  growth at 100 µM: -22%
[20]
  growth at 1 µM: 91%
[21]
  growth at 100 µM: 16%
[22]
  GI50: 3550 nM
  LC50: > 100 µM
  TGI: 9.48 µM
[23]
  growth at 1 µM: 59%
[24]
  growth at 100 µM: -80%
[25]
  growth at 1 µM: 100%
[26]
  growth at 1 µM: 89%
[27]
  growth at 0.1 µM: 89%
[28]
  growth at 100 µM: -25%
[29]
  growth at 1 µM: 94%
[30]
  GI50: 7.94 µM
  TGI: > 100 µM
  CC50: > 100 µM
[31]
  growth at 100 µM: -32%
[32]
  growth at 1 µM: 80%
[33]
  growth at 100 µM: 12%
[34]
  growth at 0.01 µM: 99%
[35]
  GI50: 5.08 µM
  LC50 (concentration killing 50% of cells): > 100 µM
  TGI: 70.8 µM
[36]
  growth at 0.1 µM: 82%
[37]
  growth at 100 µM: -1%

## Cn1cc(C2=C(c3cn(C)c4ncccc34)C(=O)NC2=O)c2ccccc21
[1]
  GI50: 2.24 µM
  TGI: 6.84 µM
[2]
  growth at 0.01 µM: 97%
[3]
  growth at 100 µM: 2%
[4]
  growth at 1 µM: 84%
[5]
  growth at 0.1 µM: 111%
[6]
  growth at 0.1 µM: 99%
[7]
  growth at 1 µM: 74%
[8]
  growth at 0.01 µM: 97%
[9]
  growth at 0.1 µM: 92%
[10]
  growth at 0.1 µM: 98%
[11]
  growth at 0.01 µM: 103%
[12]
  growth at 0.1 µM: 97%
[13]
  growth at 100 µM: -86%
[14]
  growth at 0.01 µM: 89%
[15]
  GI50: 3.61 µM
  TGI: 32.6 µM
[16]
  growth at 0.1 µM: 96%
[17]
  growth at 1 µM: 87%
[18]
  growth at 100 µM: -11%
[19]
  growth at 100 µM: -65%
[20]
  growth at 1 µM: 91%
[21]
  growth at 100 µM: -10%
[22]
  GI50: 1040 nM
  TGI: 18.4 µM
[23]
  growth at 1 µM: 75%
[24]
  growth at 100 µM: -94%
[25]
  growth at 1 µM: 84%
[26]
  growth at 1 µM: 85%
[27]
  growth at 0.1 µM: 102%
[28]
  growth at 100 µM: -67%
[29]
  growth at 1 µM: 76%
[30]
  GI50: 3.69 µM
  TGI: 36.7 µM
  CC50: > 100 µM
[31]
  growth at 100 µM: -51%
[32]
  growth at 1 µM: 86%
[33]
  growth at 100 µM: -18%
[34]
  growth at 0.01 µM: 107%
[35]
  GI50: 4.1 µM
  TGI: 27.5 µM
[36]
  growth at 0.1 µM: 73%
[37]
  growth at 100 µM: -49%
